Test results taken from US20210137961A1, “Compositions and Methods for Treating Dry Eye Diseases” (priority 2017, published 2021).
Values after ≈ are worked out from the molar mass of the structure shown.

Tests used:
TNFα = assay: LPS-induced TNFα production in PMA-differentiated U937 cells (ELISA); assay type: cell-based, human
Method: EXAMPLE. […] Cells. The human monocytic cell line U937 was obtained from the American Type Culture Collection (ATCC, Rockville, Md.). PBMCs from COPD patients were obtained from Brompton hospital and separated by AccuSPIN (Sigma-Aldrich). […] U937 cells were differentiated into adherent macrophage-like morphology by exposure to PMA (50 ng/ml) for 48 h in complete growth medium. Cell viability was assessed microscopically by trypan blue staining. Cell toxicity was determined by MTT assay as needed. This study was approved by the ethics committee of the Royal Brompton Hospitals, and all subjects gave written informed consent. Cytokine ELISA. TNFα and IL-8 concentrations in the supernatant of cell cultures were determined by sandwich ELISA according to the manufacturer's instructions (R&D Systems Europe, Abingdon, UK). Statistical analysis. The results were expressed as the mean±SEM. Comparisons of data in two groups were performed using the Student's t test or the Wilcoxon signed rank test. Multiple comparisons were made by one-way ANOVA with post hoc test (Dunnett's) as appropriate. The difference was considered significant at p<0.05. […] Anti-inflammatory effects of solithromycin in U937 cells.

[1] = Protein binding in plasma; assay type: in vitro ADME
Ureaplasma urealyticum = assay: MIC against Ureaplasma urealyticum; assay type: cell-based; settings: N 10
[2] = test system: Haemophilus parainfluenzae; assay: MIC against Haemophilus parainfluenzae; assay type: cell-based; settings: N 11
[3] = MIC in the presence of serum; assay type: cell-based; settings: 10% serum
P. acnes = assay: MIC against P. acnes; assay type: cell-based
Neisseria gonorrhoeae = assay: MIC against Neisseria gonorrhoeae; assay type: cell-based; settings: N 34
Mycobacterium avium = assay: MIC against Mycobacterium avium; assay type: cell-based; settings: N 30
CA-MRSA = assay: MIC against CA-MRSA; assay type: cell-based, Staphylococcus aureus; settings: N 30
Streptococcus mitis = assay: MIC against Streptococcus mitis; assay type: cell-based; settings: N 73
MSSA = assay: MIC against MSSA (31 species); assay type: cell-based
Streptococcus pneumoniae = assay: MIC against Streptococcus pneumoniae; assay type: cell-based
Listeria monocytogenes = assay: MIC against Listeria monocytogenes; assay type: cell-based; settings: N 10
Mycoplasma hominis = assay: MIC against Mycoplasma hominis; assay type: cell-based; settings: N 13
MSRA = assay: MIC against MSRA (30 species); assay type: cell-based
S. pneumoniae = assay: MIC against S. pneumoniae (30 species); assay type: cell-based
[4] = test system: Streptococci (Groups C, F, G); assay: MIC against Streptococci (Groups C, F, G); assay type: cell-based; settings: N 185
Chlamydia trachomatis = assay: MIC against Chlamydia trachomatis; assay type: cell-based; settings: N 10
H. influenzae = assay: MIC against H. influenzae (30 species); assay type: cell-based
Chlamydophila pneumoniae = assay: MIC against Chlamydophila pneumoniae; assay type: cell-based
Moraxella catarrhalis = assay: MIC against Moraxella catarrhalis; assay type: cell-based; settings: N 21
Staphylococcus aureus = assay: MIC against Staphylococcus aureus; assay type: cell-based; settings: N 201
Streptococcus agalactiae = assay: MIC against Streptococcus agalactiae; assay type: cell-based; settings: N 535
Corynebacterium spp. = assay: MIC against Corynebacterium spp.; assay type: cell-based; settings: N 10
[5] = test system: L. monocytogenes and S. aureus; assay: Antibacterial activity at acidic pH compared with Azi; assay type: cell-based; settings: including L. monocytogenes and S. aureus
[6] = test system: Viridans group streptococci; assay: MIC against Viridans group streptococci; assay type: cell-based; settings: N 51
[7] = Streptococcus pneumoniae, N 150

Structure (SMILES): CC[C@H]1OC(=O)[C@@](C)(F)C(=O)[C@H](C)[C@@H](O[C@@H]2O[C@H](C)C[C@H](N(C)C)[C@H]2O)[C@](C)(OC)C[C@@H](C)C(=O)[C@H](C)[C@H]2N(CCCCn3cc(-c4cccc(N)c4)nn3)C(=O)O[C@]12C [Solithromycin, solithromycin]
- IC50 (TNFα; LPS, PMA-differentiated U937 cells, read-out: IC50 on TNFα release): 41.6 ± 1.9 µM
- inhibition of TNFα production (in words) (TNFα; solithromycin and telithromycin at 100 μM, clarithromycin at 333 μM): significantly inhibited
- protein binding in plasma [1]: 86%
- MIC50 (Ureaplasma urealyticum): 0.008 µg/mL (≈ 0.00947 µM)
- MIC90 (Ureaplasma urealyticum): 0.031 µg/mL (≈ 0.0367 µM)
- MIC Range (Ureaplasma urealyticum): 0.004 to 0.063 µg/mL
- MIC50 [2]: 2 µg/mL (≈ 2.37 µM)
- MIC90 [2]: 2 µg/mL (≈ 2.37 µM)
- MIC Range [2]: 1 to 2 µg/mL
- change in MIC in the presence of serum [3]: 2 fold
- MIC 50% (P. acnes; P. acnes): 0.015 µg/mL (≈ 0.0178 µM)
- MIC 90% (P. acnes; P. acnes (51 species)): 0.06 µg/mL (≈ 0.071 µM)
- MIC Range (P. acnes; P. acnes (51 species)): ≤0.002 to 0.25 µg/mL
- MIC50 (Neisseria gonorrhoeae): 0.06 µg/mL (≈ 0.071 µM)
- MIC90 (Neisseria gonorrhoeae): 0.12 µg/mL (≈ 0.142 µM)
- MIC Range (Neisseria gonorrhoeae): 0.03 to 0.25 µg/mL
- MIC50 (Mycobacterium avium): 1 µg/mL (≈ 1.18 µM)
- MIC90 (Mycobacterium avium): 1 µg/mL (≈ 1.18 µM)
- MIC Range (Mycobacterium avium): 1 µg/mL (≈ 1.18 µM)
- MIC50 (CA-MRSA): 0.12 µg/mL (≈ 0.142 µM)
- MIC90 (CA-MRSA): 0.12 µg/mL (≈ 0.142 µM)
- MIC Range (CA-MRSA): 0.06 to 0.12 µg/mL
- MIC50 (Streptococcus mitis): ≤0.03 µg/mL
- MIC90 (Streptococcus mitis): 0.06 µg/mL (≈ 0.071 µM)
- MIC Range (Streptococcus mitis): ≤0.03-0.25^ μg/mL
- I = intermediate susceptibility (MSSA): 0%
- MIC50 (MSSA): 0.015 µg/mL (≈ 0.0178 µM)
- MIC90 (MSSA): 0.03 µg/mL (≈ 0.0355 µM)
- MIC Range (MSSA): 0.004 to 64 µg/mL
- NS = not susceptible (MSSA): 6%
- S = susceptible (MSSA): 94%
- MIC90 (Streptococcus pneumoniae; Streptococcus Pneumoniae (150 strains)): 0.25 µg/mL (≈ 0.296 µM)
- MIC50 (Streptococcus pneumoniae; [7]): 0.015 µg/mL (≈ 0.0178 µM)
- MIC90 (Streptococcus pneumoniae; [7]): 0.25 µg/mL (≈ 0.296 µM)
- MIC Range (Streptococcus pneumoniae; [7]): ≤0.008 to 0.5 µg/mL
- MIC50 (Listeria monocytogenes): 0.03 µg/mL (≈ 0.0355 µM)
- MIC90 (Listeria monocytogenes): 0.03 µg/mL (≈ 0.0355 µM)
- MIC Range (Listeria monocytogenes): 0.03 µg/mL (≈ 0.0355 µM)
- MIC50 (Mycoplasma hominis): 0.004 µg/mL (≈ 0.00473 µM)
- MIC90 (Mycoplasma hominis): 0.008 µg/mL (≈ 0.00947 µM)
- MIC Range (Mycoplasma hominis): 0.002 to 0.008 µg/mL
- I = intermediate susceptibility (MSRA): 0%
- MIC50 (MSRA): 0.03 µg/mL (≈ 0.0355 µM)
- MIC90 (MSRA): 64 µg/mL (≈ 75.7 µM)
- NS = not susceptible (MSRA): 30%
- S = susceptible (MSRA): 70%
- I = intermediate susceptibility (S. pneumoniae): 0%
- MIC50 (S. pneumoniae): 0.002 µg/mL (≈ 0.00237 µM)
- MIC90 (S. pneumoniae): 0.12 µg/mL (≈ 0.142 µM)
- MIC Range (S. pneumoniae): ≤0.001-0.25 ^ μg/ml
- NS = not susceptible (S. pneumoniae): 0%
- S = susceptible (S. pneumoniae): 100%
- MIC50 [4]: ≤0.03 µg/mL
- MIC90 [4]: ≤0.03 µg/mL
- MIC Range [4]: ≤0.03-0.25^ μg/mL
- MIC50 (Chlamydia trachomatis): 0.25 µg/mL (≈ 0.296 µM)
- MIC90 (Chlamydia trachomatis): 0.25 µg/mL (≈ 0.296 µM)
- MIC Range (Chlamydia trachomatis): 0.125 to 0.5 µg/mL
- I = intermediate susceptibility (H. influenzae): 0%
- MIC50 (H. influenzae): 2 µg/mL (≈ 2.37 µM)
- MIC90 (H. influenzae): 2 µg/mL (≈ 2.37 µM)
- MIC Range (H. influenzae): 1 to 4 µg/mL
- NS = not susceptible (H. influenzae): 0%
- S = susceptible (H. influenzae): 100%
- MIC90 (Chlamydophila pneumoniae; Chlamydophila pneumoniae (10 strains)): 0.25 µg/mL (≈ 0.296 µM)
- MIC50 (Chlamydophila pneumoniae; Chlamydophila pneumoniae, N 10): 0.25 µg/mL (≈ 0.296 µM)
- MIC90 (Chlamydophila pneumoniae; Chlamydophila pneumoniae, N 10): 0.25 µg/mL (≈ 0.296 µM)
- MIC Range (Chlamydophila pneumoniae; Chlamydophila pneumoniae, N 10): 0.25 to 1 µg/mL
- MIC50 (Moraxella catarrhalis): 0.12 µg/mL (≈ 0.142 µM)
- MIC90 (Moraxella catarrhalis): 0.12 µg/mL (≈ 0.142 µM)
- MIC Range (Moraxella catarrhalis): ≤0.008 to 0.5 µg/mL
- MIC50 (Staphylococcus aureus): 0.12 µg/mL (≈ 0.142 µM)
- MIC90 (Staphylococcus aureus): >16 µg/mL
- MIC50 (Streptococcus agalactiae): ≤0.03 µg/mL
- MIC90 (Streptococcus agalactiae): ≤0.03 µg/mL
- MIC Range (Streptococcus agalactiae): ≤0.03-0.5 ^ μg/mL
- MIC50 (Corynebacterium spp.): 0.015 µg/mL (≈ 0.0178 µM)
- MIC90 (Corynebacterium spp.): 0.5 µg/mL (≈ 0.592 µM)
- MIC Range (Corynebacterium spp.): ≤0.008-16 ^ μg/mL
- activity at acidic pH relative to Azi [5]: 100-200 fold
- MIC50 [6]: ≤0.008 µg/mL
- MIC90 [6]: 0.06 µg/mL (≈ 0.071 µM)
- MIC Range [6]: ≤0.008-0.12 ^ μg/mL
